From ChEMBL document CHEMBL3875185, “Structure-anticonvulsant activity studies in the group of (E)-N-cinnamoyl aminoalkanols derivatives monosubstituted in phenyl ring with 4-Cl, 4-CH3 or 2-CH3” (Bioorg Med Chem, 2017)
Activity calls are given as the source filed them. No cut-off for these calls is given here.

How the values were obtained:
[1] = Displacement of [35S]dATPaS from rat cerebral cortex P2Y receptor measured after 60 mins by scintillation counting method
Mus musculus [2] = test: Anticonvulsant activity in ip dosed 6-Hz induced seizure mouse model assessed as restoration of normal activity within 10 secs from stimulation at 44 mA; assay type: functional
Mus musculus [3] = test: Anticonvulsant activity in ip dosed pentylenetetrazole induced seizure mouse model; assay type: functional
Rattus norvegicus [4] = test: Anticonvulsant activity in po dosed pentylenetetrazole induced seizure rat model; assay type: functional
[5] = biological target: Vasoactive intestinal polypeptide receptor 1 (Homo sapiens, UniProt P32241); test: Displacement of [125I]VIP from human recombinant VPAC1 receptor expressed in CHO cells measured after 60 mins by scintillation counting method; assay type: cell-based
[6] = Displacement of [3H]D888 from rat cerebral cortex calcium channel L type verapamil binding site measured after 120 mins by scintillation counting method
[7] = Displacement of [35S]TBPS from rat cerebral cortex GABA-gated chloride channel measured after 60 mins by scintillation counting method
[8] = Displacement of [3H]batrachotoxinin from rat cerebral cortex sodium channel site 2 measured after 60 mins by scintillation counting method
[9] = Displacement of [125I]Tyr11-somatostatin-14 from Sst receptor in mouse AtT-20 cells measured after 60 mins by scintillation counting method; assay type: cell-based; details: att20
[10] = Displacement of [3H]a,b-MeATP from rat urinary bladder P2X receptor measured after 120 mins by scintillation counting method
[11] = Displacement of [3H]TCP from rat cerebral cortex phencyclidine receptor measured after 120 mins by scintillation counting method
Mus musculus [12] = test: Anticonvulsant activity in ip dosed maximal electroshock induced seizure mouse model assessed as suppression in hindlimb tonic extension by measuring time to peak effect; assay type: functional
Rattus norvegicus [13] = test: Neurotoxicity in Sprague-Dawley rat assessed as behavioral change at 30 mg/kg, po measured at […] post dose; assay type: toxicity, organism-based; details: in vivo
Mus musculus [14] = test: Anticonvulsant activity in maximal electroshock induced seizure mouse model assessed as suppression in hindlimb tonic extension at 30 mg/kg, ip measured at 4 hrs post dose; assay type: functional, organism-based
Mus musculus [15] = test: Anticonvulsant activity in maximal electroshock induced seizure mouse model assessed as suppression in hindlimb tonic extension at 100 mg/kg, ip measured at 4 hrs post dose; assay type: functional, organism-based
Mus musculus [16] = test: Anticonvulsant activity in maximal electroshock induced seizure mouse model assessed as suppression in hindlimb tonic extension at 300 mg/kg, ip measured at 4 hrs post dose; assay type: functional, organism-based
Mus musculus [17] = test: Neurotoxicity in mouse assessed as induction of motor impairment at 30 mg/kg, ip measured at 0.5 hrs post dose by rotarod method; assay type: toxicity, organism-based; details: in vivo
Mus musculus [18] = test: Neurotoxicity in mouse assessed as induction of motor impairment at 30 mg/kg, ip measured at 4 hrs post dose by rotarod method; assay type: toxicity, organism-based; details: in vivo
Mus musculus [19] = test: Neurotoxicity in mouse assessed as induction of motor impairment at 300 mg/kg, ip measured at 4 hrs post dose by rotarod method; assay type: toxicity, organism-based; details: in vivo
Mus musculus [20] = test: Anticonvulsant activity in 6-Hz induced seizure mouse model assessed as restoration of normal activity within 10 secs from stimulation at 100 mg/kg, ip at 32 mA measured at 4 hrs post dose; assay type: functional, organism-based
Rattus norvegicus [21] = test: Anticonvulsant activity in maximal electroshock induced seizure Sprague-Dawley rat model assessed as suppression in hindlimb tonic extension at 30 mg/kg, po measured at 2 hrs post dose; assay type: functional, organism-based
Rattus norvegicus [22] = test: Neurotoxicity in Sprague-Dawley rat assessed as behavioral change at 30 mg/kg, po measured at 1 hr post dose; assay type: toxicity, organism-based; details: in vivo
Rattus norvegicus [23] = test: Neurotoxicity in Sprague-Dawley rat assessed as behavioral change at 30 mg/kg, po measured at 0.5 hrs post dose; assay type: toxicity, organism-based; details: in vivo
Rattus norvegicus [24] = test: Neurotoxicity in Sprague-Dawley rat assessed as behavioral change at 30 mg/kg, po measured at 2 hrs post dose; assay type: toxicity, organism-based; details: in vivo
Rattus norvegicus [25] = test: Neurotoxicity in Sprague-Dawley rat assessed as behavioral change at 30 mg/kg, po measured at 4 hrs post dose; assay type: toxicity, organism-based; details: in vivo
Rattus norvegicus [26] = test: Neurotoxicity in Sprague-Dawley rat assessed as behavioral change at 30 mg/kg, ip measured at […] post dose; assay type: toxicity, organism-based; details: in vivo
Rattus norvegicus [27] = test: Neurotoxicity in Sprague-Dawley rat assessed as behavioral change at 30 mg/kg, ip measured at 0.5 hrs post dose; assay type: toxicity, organism-based; details: in vivo
Rattus norvegicus [28] = test: Neurotoxicity in Sprague-Dawley rat assessed as behavioral change at 30 mg/kg, ip measured at 1 hr post dose; assay type: toxicity, organism-based; details: in vivo
Rattus norvegicus [29] = test: Neurotoxicity in Sprague-Dawley rat assessed as behavioral change at 30 mg/kg, ip measured at 2 hrs post dose; assay type: toxicity, organism-based; details: in vivo
Rattus norvegicus [30] = test: Neurotoxicity in Sprague-Dawley rat assessed as behavioral change at 30 mg/kg, ip measured at 4 hrs post dose; assay type: toxicity, organism-based; details: in vivo
Mus musculus [31] = test: Anticonvulsant activity in ip dosed pentylenetetrazole induced seizure mouse model assessed as no observable episode of clonic convulsion of at least 5 secs by measuring time to peak effect; assay type: functional
Mus musculus [32] = test: Neurotoxicity in ip dosed mouse assessed as induction of motor impairment by measuring time to peak effect by rotarod method; assay type: toxicity, organism-based; details: in vivo
Mus musculus [33] = test: Anticonvulsant activity in ip dosed maximal electroshock induced seizure mouse model assessed as suppression in hindlimb tonic extension; assay type: functional
Mus musculus [34] = test: Anticonvulsant activity in ip dosed pentylenetetrazole induced seizure mouse model assessed as no observable episode of clonic convulsion of at least 5 secs; assay type: functional
[35] = Neurotoxicity in ip dosed mouse; assay type: toxicity, organism-based; details: in vivo
[36] = Protection index, ratio of TD50 for neurotoxicity in ip dosed mouse to ED50 for ip dosed maximal electroshock induced seizure mouse model; assay type: toxicity, organism-based; details: in vivo, read-out: Ratio TD50/ED50
[37] = Protection index, ratio of TD50 for neurotoxicity in ip dosed mouse to ED50 for ip dosed pentylenetetrazole induced seizure mouse model; assay type: toxicity, organism-based; details: in vivo, read-out: Ratio TD50/ED50

Vasoactive intestinal polypeptide receptor 1, sequence (P32241 whole entry): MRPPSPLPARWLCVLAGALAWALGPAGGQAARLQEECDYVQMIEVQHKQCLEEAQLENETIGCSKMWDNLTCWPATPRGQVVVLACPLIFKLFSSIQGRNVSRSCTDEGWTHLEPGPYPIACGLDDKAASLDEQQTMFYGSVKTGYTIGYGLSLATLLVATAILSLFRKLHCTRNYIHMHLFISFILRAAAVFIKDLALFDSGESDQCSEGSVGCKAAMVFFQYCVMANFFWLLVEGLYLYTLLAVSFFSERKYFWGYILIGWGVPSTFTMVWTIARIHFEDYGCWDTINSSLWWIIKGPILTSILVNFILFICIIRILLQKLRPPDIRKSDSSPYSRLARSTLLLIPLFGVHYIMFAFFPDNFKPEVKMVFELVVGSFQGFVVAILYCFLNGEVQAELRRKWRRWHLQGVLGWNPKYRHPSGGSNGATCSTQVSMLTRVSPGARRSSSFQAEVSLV

## Nc1ncnc2c1ncn2[C@H]1C[C@H](O)[C@@H](COP(O)(=S)OP(=O)(O)OP(=O)(O)O)O1 (some centres not stated)
[1]
  IC50: 29 nM

## CCCC(CCC)C(=O)O [VALPROIC ACID]
Mus musculus [2]
  ED50: 310 mg/kg
Mus musculus [3]
  ED50: 220 mg/kg
Rattus norvegicus [4]
  ED50: 646 mg/kg

## H-HSDAVFTDNYTRLRKQLAVKKYLNSILN-NH2
[5]
  IC50: 0.11 nM

## COc1ccc(CCN(C)CCCC(C#N)(c2cc(OC)c(OC)c(OC)c2)C(C)C)cc1OC (configuration not stated) [GALLOPAMIL]
[6]
  IC50: 15 nM

## C=C(C)[C@@H]1[C@H]2OC(=O)[C@@H]1[C@]1(O)C[C@H]3O[C@]34C(=O)O[C@H]2[C@]14C [PICROTOXININ]
[7]
  IC50: 77 nM

## COc1ccc(C(=O)O[C@H]2CC[C@@]3(C)[C@H]4CC[C@H]5[C@]6(O)C[C@H](O)[C@@]7(O)[C@@H](CN8C[C@@H](C)CC[C@H]8[C@@]7(C)O)[C@]6(O)C[C@@]53O[C@@]24O)cc1OC
[8]
  IC50: 4000 nM

## C[C@H](N)C(=O)NCC(=O)N[C@H]1CSSC[C@@H](C(=O)O)NC(=O)[C@H](CO)NC(=O)[C@H]([C@@H](C)O)NC(=O)[C@H](Cc2ccccc2)NC(=O)[C@H]([C@@H](C)O)NC(=O)[C@H](CCCCN)NC(=O)[C@H](Cc2c[nH]c3ccccc23)NC(=O)[C@H](Cc2ccccc2)NC(=O)[C@H](Cc2ccccc2)NC(=O)[C@H](CC(N)=O)NC(=O)[C@H](CCCCN)NC1=O [SOMATOSTATIN]
[9]
  IC50: 0.074 nM

## Nc1ncnc2c1ncn2[C@@H]1O[C@H](COP(=O)(O)CP(=O)(O)OP(=O)(O)O)[C@@H](O)[C@H]1O [DIPHOSPHOMETHYLPHOSPHONIC ACID ADENOSYL ESTER]
[10]
  IC50: 1.9 nM

## C[C@]12N[C@H](Cc3ccccc31)c1ccccc12 [DIZOCILPINE]
[11]
  IC50: 4.6 nM

## O=C(/C=C/c1ccc(Cl)cc1)N[C@H]1CC[C@H](O)CC1
Mus musculus [12]
  Time: 2 h
Rattus norvegicus [13]
  Activity: Non-Toxic
Mus musculus [14]
  Activity: Active
Mus musculus [15]
  Activity: Active
Mus musculus [16]
  Activity: Active
Mus musculus [17]
  Activity: Non-Toxic
Mus musculus [18]
  Activity: Non-Toxic
Mus musculus [19]
  Activity: Non-Toxic
Mus musculus [20]
  Activity: Active
Rattus norvegicus [21]
  Activity: Active
Rattus norvegicus [22]
  Activity: Non-Toxic
Rattus norvegicus [23]
  Activity: Non-Toxic
Rattus norvegicus [24]
  Activity: Non-Toxic
Rattus norvegicus [25]
  Activity: Non-Toxic
Rattus norvegicus [26]
  Activity: Non-Toxic
Rattus norvegicus [27]
  Activity: Non-Toxic
Rattus norvegicus [28]
  Activity: Non-Toxic
Rattus norvegicus [29]
  Activity: Non-Toxic
Rattus norvegicus [30]
  Activity: Non-Toxic
Mus musculus [31]
  Time: 2 h
Mus musculus [32]
  Time: 6 h
Mus musculus [33]
  ED50: 186 mg/kg
Mus musculus [34]
  ED50: 317 mg/kg
[35]
  TD50: > 600 mg/kg
[36]
  selectivity ratio: > 3.22
[37]
  selectivity ratio: > 1.9
